We go through 18 compounds from patent US9663454B2, “3-aryl propiolonitrile compounds for thiol labeling” (Universite de Strasbourg, priority 2013, dated 2017).

The structures appear in SMILES notation. Entries after “also recorded” stand apart in the source; their conditions may differ. Marks after values point to notes of the source that are not given here.

Data set [1] deals with Trastuzumab. In words: Rebridging of antibody fragments, SDS-PAGE in reducing conditions. As to conditions: Trastuzumab reduced with 5 eq. TCEP, 15 eq. compound, 16 h at 25° C. As for the experimental part: To the solution of Trastuzumab (100 uL, 10 mg/mL in 50 mM PBS pH 7.4 with 10 mM of EDTA) was added the solution of TCEP (10 mM in water, 5 eq.). The mixture was incubated at 37° C. for 2 h and then the solution of 33 or 34 (10 mM in DMSO, 15 eq.) was added. The resulting solution was incubated for 16 h at 25° C. and then analyzed by SDS-PAGE in reducing conditions.

For data set [2], the system named is partially reduced Trastuzumab. In words: Direct conjugation to partially reduced Trastuzumab, SDS-PAGE and ESI-MS. How it is done: To the solution of Trastuzumab (100 uL, 10 mg/mL in 50 mM PBS pH 7.4 with 10 mM of EDTA) was added the solution of TCEP (10 mM in water, 1.1 or 2.2 eq.). The mixture was incubated at 37° C. for 2 h and then the solution of 58 (8.25 μL, 10 mM in DMSO) was added. The mixture was incubated at 25° C. for 16 h and the conjugate was purified by size exclusion chromatography.

The test system of data set [3] is Trastuzumab. In words: Conjugation of Trastuzumab and TAMRA-SH via linker, SDS-PAGE and native ESI-MS. As for the experimental part: To the solution of Trastuzumab (100 uL, 10 mg/mL in 50 mM borate buffer pH 8.5) was added 1.74 uL of the solution of 18 (10 mg/mL in DMSO). After incubation for 1 h at 25° C. was added 0.69 uL of TAMRA-SH (100 mM in DMSO). The mixture was incubated at 25° C. for 16 h and the conjugate was purified by size exclusion chromatography.
The comparison experiment was carried out using 4-(N-maleimidomethyl)cyclohexanecarboxylic acid N-hydroxysuccinimide ester (SMCC) instead of 18.

A short description of data set [4]: Labeling of a cysteine derivative: conversion of arylpropiolonitriles 1-12 with AcCysNHBn, HPLC. The note with it: 50 μM of each reagent, 25° C., PBS pH 7.6. How it is done:
To a vial containing 985 μL of PBS (1×, pH 7.6), were subsequently added 5 μL of the stock solution of benzamide (10 mM in water), 5 μL of the stock solution of arylpropiolonitrile (1-12, 10 mM in DMSO) and 5 μL of stock solution of AcCysNHBn (7 m, 10 mM in DMSO). […] Areas under the peaks of the starting materials and hydrolysis products were normalized according to the area of the peak of the internal standard.
Obtained results are summed up in table 2 below, which presents the conversion of the compounds 1-12 in 30 minutes in presence of 7m at 50 μM concentration of each reagent and 25° C. The reaction is extremely sensitive to steric hindrances induced by substituents in ortho-position to propiolonitrile group (entries 1, 5, 8-9, 4) as well as to electronic effect of the substituent: −I and −M substituents increase (entries 10 and 12), while +M substituents decrease the reactivity of the compound (entries 3 and 7).

Data set [5] can be described thus: Hydrolytic stability in PBS, HPLC monitoring. The data set is classed as physicochemical. As for the experimental part: FIG. 3a-3b: HPLC monitoring of the hydrolysis of phenylmaleimide (2) in PBS (1×, pH 7.6) at 1 mM concentration at 25° C.; the peaks correspond, from the earliest to the latest, to
[drawing 5] conversion was monitored by disappearance of the starting material (a). Pseudo first order rate constant for the reaction was determined by plotting the ln([phenylmaleimide]) versus time and analyzing by linear regression. The constant corresponds to the absolute value of determined slope (b).
FIG. 4: HPLC monitoring of hydrolytic stability of N-(4-(cyanoethynyl)phenyl)acetamide (pNHAc-APN, 11) in PBS (1×, pH 7.6) at 1 mM concentration at 25° C. Conversion was monitored by disappearance of the starting material; the peaks correspond, from the earliest to the latest, to
To a vial containing 980 μL of PBS (1×, pH 7.6), were subsequently added 10 μL of a stock solution of benzamide and 10 μL of a stock solution of electrophile (phenylmaleimide 1 or
[drawing 112] 11) to give final concentration of 1 mM (both internal standard and electrophile). Aliquots of the reaction mixture (50 μL) were analyzed by HPLC for 5 hours of hydrolysis (injection every 30 min). Areas under the peaks of the starting materials and hydrolysis products were normalized according to the area of the peak of the internal standard.

Data set [6] is described as follows: Stability of the addition product in different working solutions, HPLC. The note with it: for Conversion of “addition product” in 1 h: 100 μM, 25° C. It is filed as physicochemical. How it is done: A 100 mM stock solution of the “addition product”
[drawing 113] was prepared in DMSO and stored at −20° C. 1 μL of the stock solution was added to 999 μL of working solutions to give 100 μM final concentration of substrate. Aliquots were analyzed at 0, 30 and 60 min. Areas under peak of starting material were normalized according to the area of the peak of the internal standard (benzamide). All measurements were carried at 25° C.

The mark [7] stands for this setting: conversion of the compound in 30 minutes in presence of 7m.
Where [8] appears, read: conversion in 60 minutes in presence of 7m.

For the compound `N#CC#Cc1cccc(C#CC#N)c1` [Compound 34, 3,3′-(1,3-Phenylene)dipropiolonitrile], the “bridging of antibody fragments (in words)” value in data set [1] is “successfully bridged”. `CN(C)c1ccc2c(-c3cc(C(=O)NCc4cn(-c5ccc(C#CC#N)cc5)nn4)ccc3C(=O)[O-])c3ccc(=[N+](C)C)cc-3oc2c1` [Compound 58, 4-(((1-(4-(cyanoethynyl)phenyl)-1H-1,2,3-triazol-4-yl)methyl)carbamoyl)-2-(6-(dimethylamino)-3-(dimethyliminio)-3H-xanthen-9-yl)benzoate]: in data set [2] (ESI-MS, 2.2 eq. of TCEP), the “molecules conjugated per antibody, in average” value stood at 4. Further, the “attachment to the antibody (in words)” value in data set [2] (SDS-PAGE of the conjugates) is “covalently attached to the antibody”. Turning to `N#CC#Cc1ccc(C(=O)Oc2c(F)c(F)c(S(=O)(=O)O)c(F)c2F)cc1` [Compound 18, Sodium 4-((4-(cyanoethynyl)benzoyl)oxy)-2,3,5,6-tetrafluorobenzenesulfonate], the “level of conjugation (in words)” value in data set [3] (SDS-PAGE, Trastuzumab + TAMRA-SH, versus SMCC) is “higher levels of conjugation comparing to SMCC”. For the same compound, in data set [3] (native ESI-MS of the conjugate), the “molecules of TAMRA conjugated per antibody, in average” value is on record as “one” and the “population of conjugates (in words)” value is “cleaner population of conjugates”.

Consider `N#CC#Cc1cccc(N)c1` [Compound 6, 3-(3-Aminophenyl)propiolonitrile], for which the Conversion in data set [4] (setting [7]) is recorded as 42.0%. As for `COc1cccc(OC)c1C#CC#N` [Compound 4, 3-(2,6-Dimethoxyphenyl)propiolonitrile], in data set [4] (setting [8]), the Conversion worked out at 4.8%**. Turning to `Cc1ccccc1C#CC#N` [Compound 8, 3-(o-Tolyl)propiolonitrile], in data set [4] (setting [7]), the Conversion amounted to 10.3%. `CC(=O)Nc1ccc(C#CC#N)cc1` [Compound 11, N-(4-(Cyanoethynyl)phenyl)acetamide]: in data set [4] (setting [7]), the Conversion was determined as 52.3%. Further, the “hydrolysis (in words)” value is reported as “no hydrolysis could be detected; also recorded: No detectable conversion; also recorded: no detectable change in concentration” in data set [5] (PBS (1×, pH 7.6), 1 mM, 25° C., up to 5 hours of monitoring) and “no trace of hydrolyzed product could be detected” in data set [5] (after a week at room temperature). On to `N#CC#Cc1ccc(N)cc1` [Compound 7, 3-(4-Aminophenyl)propiolonitrile], for which the Conversion in data set [4] (setting [7]) was 7.4%. `N#CC#Cc1ccccc1C#CC#N` [Compound 33, 3,3′-(1,2-Phenylene)dipropiolonitrile]: the “bridging of antibody fragments (in words)” value in data set [1] was “successfully bridged”. In the case of `N#CC#Cc1ccccc1[N+](=O)[O-]` [Compound 10, 3-(2-Nitrophenyl)propiolonitrile], the Conversion in data set [4] (setting [7]) worked out at 70.4%*. As for `COc1ccccc1C#CC#N` [Compound 1, 3-(2-Methoxyphenyl)propiolonitrile], the Conversion in data set [4] (setting [7]) was 10.1%. Besides, in data set [5] (PBS (1×, pH 7.6), 1 mM, 25° C.), the “kobs (pseudo first order rate constant of hydrolysis)” value stood at 7e-05 s⁻¹. Also, in data set [5] (after 1 h in buffer solution), the hydrolyzed result is “approximately 25%”. `COc1cccc(C#CC#N)c1` [Compound 2, 3-(3-Methoxyphenyl)propiolonitrile]: the Conversion in data set [4] (setting [7]) came to 46.8%. As for `COc1ccc(C#CC#N)cc1` [Compound 3, 3-(4-Methoxyphenyl)propiolonitrile], the Conversion in data set [4] (setting [7]) is reported as 14.6%. On the same count and under the same terms, under `CNC(=O)c1ccc(C#CC#N)cc1` [Compound 12, 4-(Cyanoethynyl)-N-methylbenzamide] stands 85.5%; under `N#CC#Cc1ccccc1N` [Compound 5, 3-(2-Aminophenyl)propiolonitrile], 10.8%.

For `N#CC=C(SCC(N)C(=O)NCc1ccccc1)c1ccccc1` (centres unmarked) [addition product], the “Conversion of “addition product” in 1 h” value in data set [6] (100 mM PhSH in PBS(7.4):DMSO = 80:20) came to 0.7%; in data set [6] (1M Glutathione reduced (GSH) in PBS (7.4)) it was 0.4%; in data set [6] (1M H2O2) it was 1.8%; in data set [6] (1M HCl (pH = 0)), 0.1%; in data set [6] (1M Imidazole in PBS (7.4)) it was 0.5%; in data set [6] (1M NaOH (pH = 14)), 3.4%. In addition, the “thiol exchange (in words)” value in data set [6] (1 hour with an excess of phenylthiol or glutathione) was “no exchange product could be observed; also recorded: hardly any thiol exchange is observed”. Also, the “stability (in words)” value in data set [6] (wide range of conditions, pH from 0 to 14) is “stable in a wide range of pH (from 0 to 14); also recorded: stable and undergoes very little degradation in a wide range of conditions”. Turning to `O=C(ON1C(=O)CCC1=O)C1CCC(CN2C(=O)C=CC2=O)CC1` (centres unmarked) [SMCC, 4-(N-maleimidomethyl)cyclohexanecarboxylic acid N-hydroxysuccinimide ester, reference compound], in data set [3] (native ESI-MS of the conjugate), the “population of conjugates (in words)” value was “complex mixture of undistinguishable species”. `Cc1cccc(C)c1C#CC#N` [Compound 9, 3-(2,6-Dimethylphenyl)propiolonitrile]: the Conversion in data set [4] (setting [8]) amounted to 2.3%**.
